In patent publication US20210101879A1, “AMYLOID PROTEIN-SELECTIVE BACE INHIBITORS (ASBIs) FOR ALZHEIMER?S DISEASE” (The Regents of the University of California, priority 2018, published 2021):
Values joined by “and” are separate entries in the source; they are usually repeats but may differ in a detail not shown here. Equal entries are not always repeated. Where two headings read alike, the source gives them in different places.

What was measured:
PAMPA = type: in vitro ADME
BACE-1 = BACE-1 (Homo sapiens (Human), UniProt P56817); experiment: cell-free BACE enzyme assay with P5-P5′ substrate; type: biochemical
Protocol: For the assay, 4 μL of assay buffer was added to each well, followed by 2 μL of BACE-1 diluted in assay buffer to 7.5 ng/μL. Then, 2 μL of inhibitor, at concentrations along an 11 pt. two-fold dilution series starting at 0.5 μM, were added to appropriate wells and incubated for 30 minutes at room temperature. Afterwards, 2 μL of P5-P5′ BACE-1 substrate, diluted to 50 μM in assay buffer, were added to each well, after which the signal generated was read every 30 minutes at 25° C. for 2 hr.

[1] = system: CHO-7W cells (stably transfected with human amyloid precursor protein wildtype); experiment: CHO-7W cell assay (AlphaLISA of media); type: cell-based, Chinese hamster; conditions: treatment for 24 hours
Protocol: For the assay, 50 μL of CHO-7W cells were added to each well at 4×10^5 cells/mL. Then, 50 μL of inhibitor, prepared for tested concentrations, were added to appropriated wells and incubated for 24 hours at 37° C. Afterwards, media from each well is collected and assayed using an AlphaLISA assay for respective analytes.

pharmacokinetics in mice = type: in vivo
Cathepsin D (CatD) = Cathepsin D (CatD) (Homo sapiens (Human), UniProt P07339); experiment: Cathepsin-D assay; type: biochemical
Protocol: For the assay, 4 μL of assay buffer was added to each well, followed by 2 μL of Cathepsin D (CatD) diluted in assay buffer to 5 ng/μL. Then, 2 μL of inhibitor, prepared to get a testing concentration of 20 μM, were added to appropriated wells and incubated for 30 minutes at room temperature. Afterwards, 2 μL of CatD substrate, diluted to 50 μM in assay buffer, were added to each well, after which the signal generated was read every 30 minutes at 25° C. for 1 hr. Signals shown in FIG. 6 are representative of readings at 1 hr.

[2] = cell-free, several replicate values per cell, some flagged 's' (flag not defined), read-out: BACE1 IC50

Chain of BACE-1 (P56817 46-501): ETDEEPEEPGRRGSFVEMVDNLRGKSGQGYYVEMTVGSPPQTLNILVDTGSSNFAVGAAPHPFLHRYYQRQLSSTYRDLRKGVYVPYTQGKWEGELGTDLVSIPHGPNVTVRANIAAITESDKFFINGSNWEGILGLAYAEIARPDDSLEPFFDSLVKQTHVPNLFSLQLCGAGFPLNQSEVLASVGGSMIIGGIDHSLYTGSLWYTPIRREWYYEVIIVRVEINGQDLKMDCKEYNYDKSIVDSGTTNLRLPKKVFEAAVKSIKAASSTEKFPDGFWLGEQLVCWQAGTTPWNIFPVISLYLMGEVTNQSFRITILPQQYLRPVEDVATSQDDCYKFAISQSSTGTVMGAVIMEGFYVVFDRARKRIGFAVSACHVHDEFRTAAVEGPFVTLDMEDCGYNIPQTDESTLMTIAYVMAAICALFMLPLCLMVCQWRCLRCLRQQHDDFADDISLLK
Chain of Cathepsin D (CatD) (P07339 65-412, species assumed): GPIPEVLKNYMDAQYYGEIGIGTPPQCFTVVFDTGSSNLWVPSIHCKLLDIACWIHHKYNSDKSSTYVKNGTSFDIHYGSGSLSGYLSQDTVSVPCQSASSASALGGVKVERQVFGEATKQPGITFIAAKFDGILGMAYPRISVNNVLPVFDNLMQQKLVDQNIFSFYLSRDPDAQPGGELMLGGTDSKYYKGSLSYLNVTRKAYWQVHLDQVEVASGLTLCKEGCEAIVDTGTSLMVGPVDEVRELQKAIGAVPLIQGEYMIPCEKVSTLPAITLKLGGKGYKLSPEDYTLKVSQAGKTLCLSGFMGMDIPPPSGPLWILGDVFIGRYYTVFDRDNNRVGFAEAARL

SMILES | PAMPA (PAMPA) | IC50 (BACE-1; [2]) | other results
CN1C(=O)C(c2cnc(OC(F)F)nc2)(c2cccc(F)c2)N=C1N (stereo not shown) [FAH-83] | 0.51 and 0.53 | 2910 nM and 2330 nM and 9190 nM | –
CC#Cc1cc(C2(c3ccc(OC(F)F)c(C)c3)N=C(N)N(C)C2=O)ccn1 (stereo not shown) [FAH-57] | 0.61 | 440 nM and 510 nM | amyloid-beta (Aβ) [1]: significantly decreased; soluble amyloid precursor protein beta (sAPPβ) [1]: significantly decreased
Cc1cc(C2(c3cccc(F)c3)N=C(N)N(Cc3ccccc3)C2=O)ccc1OC(F)F (stereo not shown) [FAH-42] | 2.29 | – | –
Cc1cc(C2(c3cccc(-c4cncc(F)c4)c3)N=C(N)N(C)C2=O)ccc1OC(F)F (stereo not shown) [FAH-66] | 1.15 | 18 nM and 12 nM and 19 nM and 47 nM and 28 nM and 36 nM | amyloid-beta (Aβ) [1]: significantly decreased; soluble amyloid precursor protein beta (sAPPβ) [1]: significantly decreased
Cc1cc(C2(c3cccc(-c4cnc(N)nc4)c3)N=C(N)N(C)C2=O)ccc1OC(F)F (stereo not shown) [FAH-110] | 0.46 | 47 nM and 38 nM | IC50 (BACE-1; cell-free BACE assay): 43 nM
Cc1cc(C2(c3cncc(F)c3)N=C(N)N(C)C2=O)ccc1OC(F)F (stereo not shown) [FAH-37] | 0.54 | 1930 nM | –
COCc1cc(C2(c3ccc(OC(F)F)c(C)c3)N=C(N)N(C)C2=O)ccn1 (stereo not shown) [FAH-53] | 0.26 | – | –
CN1C(=O)C(C)(c2cccc(-c3cncnc3)c2)N=C1N (stereo not shown) [FAH-100] | 0.27 | 2310 nM and 4850 nM | –
CN1C(=O)C(c2ccc(OCF)cc2)(c2cccc(-c3cncnc3)c2)N=C1N (stereo not shown) [FAH-84] | 0.30 | – | –
CN1C(=O)C(c2cccc(-c3cncnc3)c2)(c2ccc3c(c2)CCO3)N=C1N (stereo not shown) [FAH-117] | 0.32 | 1370 nM and 410 nM | –
CN1C(=O)C(c2cc(-c3cncc(F)c3)ccc2F)(C2CC2)N=C1N (stereo not shown) [FAH-126] | – | – | BACE1 IC50 (μM) (BACE-1; cell-free, several replicate values per cell, some flagged 's' (flag not defined)): inactive
CCCc1cncc(-c2cccc(C3(C(C)C)N=C(N)N(C)C3=O)c2)n1 (stereo not shown) [FAH-106] | 2.36 | 2180 nM and 3160 nM | –
Cc1cc(C2(c3cc(-c4cncnc4)ccc3F)N=C(N)N(C)C2=O)ccc1OC(F)F (stereo not shown) [FAH-156] | 0.25 | 200 nM | –
Cc1cc(C2(c3ccc(F)c(-c4cncnc4)c3)N=C(N)N(C)C2=O)ccc1OC(F)F (stereo not shown) [FAH-127, 2-amino-5-(4-(difluoromethoxy)-3-methylphenyl)-5-(4-fluoro-3-(pyrimidin-5-yl)phenyl)-3-methyl-3,5-dihydro-4H-imidazol-4-one] | 0.53 and 0.49 and 0.50 | 14 nM and 13 nM and 5 nM and 24.6 nM | brain penetrance (pharmacokinetics in mice): good brain-penetrance; brain peak (pharmacokinetics in mice; at 1 hour): ~3000 (range 600-6000) ng/g; IC50 (BACE-1; cell-free BACE assay): 13 nM
Cc1cccc(C2(c3cccc(-c4cccnc4)c3)N=C(N)N(C)C2=O)c1 (stereo not shown) [FAH-75] | 0.62 | 210 nM and 240 nM and 150 nM and 420 nM | –
Cc1cc(C2(C3CCCCC3)N=C(N)N(C)C2=O)ccc1OC(F)F (stereo not shown) [FAH-59] | 4.43 | 720 nM | –

SMILES | PAMPA (PAMPA) | IC50 (BACE-1; [2]) | other results
Cc1cc(C2(C3CCN(C)CC3)N=C(N)N(C)C2=O)ccc1OC(F)F (stereo not shown) [FAH-67] | 0.20 | – | –
CCCC1CC(C2(c3ccc(OC(F)F)c(C)c3)N=C(N)N(C)C2=O)CCN1C (stereo not shown) [FAH-68] | 0.20 | 16100 nM | –
Cc1cc(C2(C3CCCC(c4cncnc4)C3)N=C(N)N(C)C2=O)ccc1OC(F)F (stereo not shown) [FAH-85] | 0.51 2 peaks | 220 nM | –
Cc1cc(C2(C3CCCC(c4ncco4)C3)N=C(N)N(C)C2=O)ccc1OC(F)F (stereo not shown) [FAH-69] | 0.92 | 110 nM and 210 nM and 120 nM and 430 nM | –
CN1C(=O)C(c2cccc(-c3cncnc3)c2)(c2ccc3occc3c2)N=C1N (stereo not shown) [FAH-116] | 0.52 | 270 nM and 260 nM | –
Cc1cc(C2(c3cncnc3)N=C(N)N(C)C2=O)ccc1OC(F)F (stereo not shown) [FAH-33] | 0.24 | > 5000 nM | –
CN1C(=O)C(c2cccc(-c3cncnc3)c2)(c2ccc3c(c2)OCO3)N=C1N (stereo not shown) [FAH-136] | 0.30 | 250 nM | –
CN1C(=O)C(c2ccc(OC(F)F)cc2)(c2cccc(-c3cncnc3)c2)N=C1N (stereo not shown) [FAH-74] | 0.36 | 4.2 nM and 2.5 nM and 5.7 nM and 7.5 nM and 15 nM and 23 nM | IC50 (BACE-1; cell-free BACE assay): 13 nM
CC1CCN(c2cccc(C3(c4ccc(OC(F)F)cc4)N=C(N)N(C)C3=O)c2)C1 (stereo not shown) [FAH-88] | 4.53 2-peaks | 840 nM and 600 nM and 2130 nM | –
CN1C(=O)C(c2cccc(-c3cncnc3)c2)(c2ccc3c(c2)OCCO3)N=C1N (stereo not shown) [FAH-135] | 0.26 | 210 nM | –
Cc1cc(C2(c3cocn3)N=C(N)N(C)C2=O)ccc1OC(F)F (stereo not shown) [FAH-38] | 3.46 | > 5000 nM | –
CC#Cc1cncc(-c2cc(C3(c4ccnc(C(F)F)c4)N=C(N)N(C)C3=O)ccc2F)c1 (stereo not shown) [FAH-152] | 0.46 | 20 nM | –
CN1C(=O)C(c2cccc(-c3cncnc3)c2)(c2ccc3c(c2)OC(F)(F)O3)N=C1N (stereo not shown) [FAH-137] | 0.59 | 460 nM | –
Cc1ncc(-c2cccc(C3(C4CC4)N=C(N)N(C)C3=O)c2)cn1 (stereo not shown) [FAH-107] | 0.40 | 8870 nM and 4930 nM and 6880 nM | –
CC#Cc1cncc(-c2cccc(C3(C(C)C)N=C(N)N(C)C3=O)c2)n1 (stereo not shown) [FAH-101] | 1.71 | – | –

Second part, led by results:

PAMPA (PAMPA) | IC50 (BACE-1; [2]) | SMILES | other results
0.35 | – | Cc1cc(C2(c3cccc(C4CNC4)c3)N=C(N)N(C)C2=O)ccc1OC(F)F (stereo not shown) [FAH-64] | –
0.35 | – | CNCc1cccc(C2(c3ccc(OC(F)F)c(C)c3)N=C(N)N(C)C2=O)c1 (stereo not shown) [FAH-62] | –
0.58 | 300 nM and 340 nM and 420 nM and 290 nM | Cc1cc(C2(c3cccc(-c4ccncn4)c3)N=C(N)N(C)C2=O)ccc1OC(F)F (stereo not shown) [FAH-87] | –
– | 780 nM and 450 nM and 2400 nM | Cc1cc(C2(c3cccc(-c4ccco4)c3)N=C(N)N(C)C2=O)ccc1OC(F)F (stereo not shown) [FAH-82] | –
0.46 | 3050 nM | Cc1cc(C2(c3ccc(OC(F)F)c(C)c3)N=C(N)N(C)C2=O)ccn1 (stereo not shown) [FAH-47] | –
0.91 | – | COCc1cccc(C2(c3ccc(OC(F)F)c(C)c3)N=C(N)N(C)C2=O)c1 (stereo not shown) [FAH-44] | –
0.79 | 140 nM and 230 nM and 490 nM | Cc1cc(C2(c3cccc(-c4cnco4)c3)N=C(N)N(C)C2=O)ccc1OC(F)F (stereo not shown) [FAH-43] | amyloid-beta (Aβ) [1]: significantly decreased; soluble amyloid precursor protein beta (sAPPβ) [1]: significantly decreased
0.91 and 0.92 | 11 nM and 16 nM and 17 nM | Cc1cc(C2(c3cccc(-c4cccnc4)c3)N=C(N)N(C)C2=O)ccc1OC(F)F (stereo not shown) [FAH-32] | IC50 (Cathepsin D (CatD)): > 100000 nM
3.07 | 4340 nM and 3960 nM | Cc1cc(C2(c3cccc(F)c3)N=C(N)N(C)C2=S)ccc1OC(F)F (stereo not shown) [FAH-31] | –
0.68 | 4350 nM | COc1cc(C2(c3ccc(OC(F)F)c(C)c3)N=C(N)N(C)C2=O)ccn1 (stereo not shown) [FAH-48] | –
0.65 | 2990 nM | Cc1cc(C2(c3ccnc(F)c3)N=C(N)N(C)C2=O)ccc1OC(F)F (stereo not shown) [FAH-46] | –
solubility issue | 80 nM and 110 nM | Cc1cc(C2(c3cccc(-c4cncc(C5CC5)c4)c3)N=C(N)N(C)C2=O)ccc1OC(F)F (stereo not shown) [FAH-111] | –
0.68 | – | Cc1cc(C2(c3cccc(-c4cnccn4)c3)N=C(N)N(C)C2=O)ccc1OC(F)F (stereo not shown) [FAH-86] | IC50 (Cathepsin D (CatD)): > 50000 nM
0.38 | 150 nM and 210 nM | Cc1cc(C2(c3cccc(NC(=O)N(C)C)c3)N=C(N)N(C)C2=O)ccc1OC(F)F (stereo not shown) [FAH-99] | –
0.37 | 140 nM and 100 nM and 49 nM and 87 nM and 93 nM | Cc1cc(C2(c3cccc(-c4ccnnc4)c3)N=C(N)N(C)C2=O)ccc1OC(F)F (stereo not shown) [FAH-72] | –
5.11 | 530 nM and 690 nM | Cc1cc(C2(c3cccc(-c4ccccc4)c3)N=C(N)N(C)C2=O)ccc1OC(F)F (stereo not shown) [FAH-73] | –
0.38 | – | CNCCc1cccc(C2(c3ccc(OC(F)F)c(C)c3)N=C(N)N(C)C2=O)c1 (stereo not shown) [FAH-63] | –
